Data from ChEMBL document CHEMBL2074528, “Canalicular multispecific organic anion transporter/multidrug resistance protein 2 mediates low-affinity transport of reduced glutathione” (Biochem J, 1999).

Key:
[1] = molecular target: MRP2 (ABCC2) (Homo sapiens, UniProt Q92887); experiment: in vitro; settings: dog, membrane vesicles from MRP2-expressing MDCK cells, probe DNP-SG
Description: TP_TRANSPORTER: inhibition of DNP-SG uptake (DNP-SG: 0.015 uM, GSH: 15 mM) in membrane vesicles from MRP2-expressing MDCK cells

[2] = substrate: N[C@@H](CCC(=O)N[C@H](CSc1ccc([N+](=O)[O-])cc1[N+](=O)[O-])C(=O)NCC(=O)O)C(=O)O; experiment: TP_TRANSPORTER: uptake in membranes from MRP2-expressing MDCK cells; type: functional, cell membranes, MDCK-II, Membrane

Molecule | activity at 15 mM [1] [%] | Km [2] [µM]
N[C@@H](CCC(=O)N[C@@H](CS)C(=O)NCC(=O)O)C(=O)O [GLUTATHIONE] | 51 | –
ATP-binding cassette sub-family C member 2 (Homo sapiens) (protein) MLEKFCNSTFWNSSFLDSPEADLPLCFEQTVLVWIPLGYLWLLAPWQLLHVYKSRTKRSSTTKLYLAKQVFVGFLLILAAIELALVLTEDSGQATVPAVRYTNPSLYLGTWLLVLLIQYSRQWCVQKNSWFLSLFWILSILCGTFQFQTLIRTLLQGDNSNLAYSCLFFISYGFQILILIFSAFSENNESSNNPSSIASFLSSITYSWYDSIILKGYKRPLTLEDVWEVDEEMKTKTLVSKFETHMKRELQKARRALQRRQEKSSQQNSGARLPGLNKNQSQSQDALVLEDVEKKKKKSGTKKDVPKSWLMKALFKTFYMVLLKSFLLKLVNDIFTFVSPQLLKLLISFASDRDTYLWIGYLCAILLFTAALIQSFCLQCYFQLCFKLGVKVRTAIMASVYKKALTLSNLARKEYTVGETVNLMSVDAQKLMDVTNFMHMLWSSVLQIVLSIFFLWRELGPSVLAGVGVMVLVIPINAILSTKSKTIQVKNMKNKDKRLKIMNEILSGIKILKYFAWEPSFRDQVQNLRKKELKNLLAFSQLQCVVIFVFQLTPVLVSVVTFSVYVLVDSNNILDAQKAFTSITLFNILRFPLSMLPMMISSMLQASVSTERLEKYLGGDDLDTSAIRHDCNFDKAMQFSEASFTWEHDSEATVRDVNLDIMAGQLVAVIGPVGSGKSSLISAMLGEMENVHGHITIKGTTAYVPQQSWIQNGTIKDNILFGTEFNEKRYQQVLEACALLPDLEMLPGGDLAEIGEKGINLSGGQKQRISLARATYQNLDIYLLDDPLSAVDAHVGKHIFNKVLGPNGLLKGKTRLLVTHSMHFLPQVDEIVVLGNGTIVEKGSYSALLAKKGEFAKNLKTFLRHTGPEEEATVHDGSEEEDDDYGLISSVEEIPEDAASITMRRENSFRRTLSRSSRSNGRHLKSLRNSLKTRNVNSLKEDEELVKGQKLIKKEFIETGKVKFSIYLEYLQAIGLFSIFFIILAFVMNSVAFIGSNLWLSAWTSDSKIFNSTDYPASQRDMRVGVYGALGLAQGIFVFIAHFWSAFGFVHASNILHKQLLNNILRAPMRFFDTTPTGRIVNRFAGDISTVDDTLPQSLRSWITCFLGIISTLVMICMATPVFTIIVIPLGIIYVSVQMFYVSTSRQLRRLDSVTRSPIYSHFSETVSGLPVIRAFEHQQRFLKHNEVRIDTNQKCVFSWITSNRWLAIRLELVGNLTVFFSALMMVIYRDTLSGDTVGFVLSNALNITQTLNWLVRMTSEIETNIVAVERITEYTKVENEAPWVTDKRPPPDWPSKGKIQFNNYQVRYRPELDLVLRGITCDIGSMEKIGVVGRTGAGKSSLTNCLFRILEAAGGQIIIDGVDIASIGLHDLREKLTIIPQDPILFSGSLRMNLDPFNNYSDEEIWKALELAHLKSFVASLQLGLSHEVTEAGGNLSIGQRQLLCLGRALLRKSKILVLDEATAAVDLETDNLIQTTIQNEFAHCTVITIAHRLHTIMDSDKVMVLDNGKIIECGSPEELLQIPGPFYFMAKEAGIENVNSTKF | – | 70
